Measurements taken from patent EP0716856B1, “Therapeutic uses of 2',5'-oligoadenylate derivatives” (Temple University of the Commonwealth System of Higher …, priority 1988, dated 1989).

Molecular target: T1, HIV-1 reverse transcriptase (Human immunodeficiency virus type 1 group M subtype B, UniProt P04585)
T1 construct: used as a source of HIV-1 reverse transcriptase; endogenous in cells; host or cells: Virions pelleted from conditioned supernatant of H9 cells infected with HTLV-IIIB, lysed with Triton X-100
Test: Inhibition of HIV-1 reverse transcriptase activity in vitro (viral lysate, poly(A).(dT)15 template-primer, [3H]dTTP incorporation)
Type: biochemical
Settings: Concentration 400 micromolar; 37°C, 1 h; read-out: Percent Inhibition
Protocol: Reverse Transcriptase Assays. Virus was concentrated from cell-free ([…]) conditioned H9/HTLV-IIIB culture supernatants by centrifugation at 18,000 r.p.m. for 4 h at 20°C in a Beckman JA-20 rotor. A viral pellet obtained from 50 ml of conditioned culture fluid was dissolved in 0.5 mL of a solution containing 17 mM Tris-HCl (pH 7.8), 3mM dithiothreitol (DTT), 55 mM KC1, 0.32% w/v Triton X-100, and 33% glycerol. This viral lysate was stored at -20°C and was used as a source of HIV-1 reverse transcriptase. Reverse transcriptase reactions were performed in 100 µL reaction volumes containing 40 mM Tris-HC1 (pH 7.8), 4 mM DTT, 50 mM KCl, 10 mM MgCl2, 0.0325% w/v Triton X-100, 3 micromolar [^33H]dTTP (80 Ci/mmol,NEN) and poly (A).(dT)15 (2.5 microgram/mL) template-primer after the addition of 10 microliter enzyme. Inhibitors were added at various concentrations after adjusting water volumes so that reaction volumes remained constant. Reactions were incubated at 37°C for 1 h in a humidified environment and terminated by adding 2 mL of 10% cold trichloroacetic acid. Precipitate was collected on 0.45 µm cellulose-acetate Millipore filters which were then dissolved in 10 mL of 3a70B aqueous scintillant and the counts per minute quantitated using a Beckman LS 6800 liquid scintillation spectrometer.

Work on `Nc1ncnc2c1ncn2[C@@H]1O[C@H](CO)[C@@H](O)[C@H]1O` [(adenosine) A, adenosine] yielded an inhibition at 400 µM of 0%.

`Nc1ncnc2c1ncn2[C@@H]1O[C@H](CO)C[C@H]1O` [cordycepin (C), 3'-deoxyadenosine] gave an inhibition at 400 µM of 0%.
